Data on 6 molecules can be found in US11214563B2 (JANSSEN PHARMACEUTICA NV, priority 2019, dated 2022).

The target in series [1] is human GluN1/GluN2B NMDA receptors (Homo sapiens (Human), UniProt Q05586+Q13224). In words: Cell-based calcium flux (FLIPR) assay on cloned human NR1/NR2B ion channels expressed in mammalian cells. To be noted: standard assay, glutamate ~EC40, 10 μM glycine. Here is the method: (§1) Effects of Test Articles on Cloned Human NR1/NR2B Ion Channels Expressed in Mammalian Cells
Chain of human GluN1/GluN2B NMDA receptors (Homo sapiens (Human), UniProt Q05586+Q13224) (Q13224 27-1484, other chains not shown): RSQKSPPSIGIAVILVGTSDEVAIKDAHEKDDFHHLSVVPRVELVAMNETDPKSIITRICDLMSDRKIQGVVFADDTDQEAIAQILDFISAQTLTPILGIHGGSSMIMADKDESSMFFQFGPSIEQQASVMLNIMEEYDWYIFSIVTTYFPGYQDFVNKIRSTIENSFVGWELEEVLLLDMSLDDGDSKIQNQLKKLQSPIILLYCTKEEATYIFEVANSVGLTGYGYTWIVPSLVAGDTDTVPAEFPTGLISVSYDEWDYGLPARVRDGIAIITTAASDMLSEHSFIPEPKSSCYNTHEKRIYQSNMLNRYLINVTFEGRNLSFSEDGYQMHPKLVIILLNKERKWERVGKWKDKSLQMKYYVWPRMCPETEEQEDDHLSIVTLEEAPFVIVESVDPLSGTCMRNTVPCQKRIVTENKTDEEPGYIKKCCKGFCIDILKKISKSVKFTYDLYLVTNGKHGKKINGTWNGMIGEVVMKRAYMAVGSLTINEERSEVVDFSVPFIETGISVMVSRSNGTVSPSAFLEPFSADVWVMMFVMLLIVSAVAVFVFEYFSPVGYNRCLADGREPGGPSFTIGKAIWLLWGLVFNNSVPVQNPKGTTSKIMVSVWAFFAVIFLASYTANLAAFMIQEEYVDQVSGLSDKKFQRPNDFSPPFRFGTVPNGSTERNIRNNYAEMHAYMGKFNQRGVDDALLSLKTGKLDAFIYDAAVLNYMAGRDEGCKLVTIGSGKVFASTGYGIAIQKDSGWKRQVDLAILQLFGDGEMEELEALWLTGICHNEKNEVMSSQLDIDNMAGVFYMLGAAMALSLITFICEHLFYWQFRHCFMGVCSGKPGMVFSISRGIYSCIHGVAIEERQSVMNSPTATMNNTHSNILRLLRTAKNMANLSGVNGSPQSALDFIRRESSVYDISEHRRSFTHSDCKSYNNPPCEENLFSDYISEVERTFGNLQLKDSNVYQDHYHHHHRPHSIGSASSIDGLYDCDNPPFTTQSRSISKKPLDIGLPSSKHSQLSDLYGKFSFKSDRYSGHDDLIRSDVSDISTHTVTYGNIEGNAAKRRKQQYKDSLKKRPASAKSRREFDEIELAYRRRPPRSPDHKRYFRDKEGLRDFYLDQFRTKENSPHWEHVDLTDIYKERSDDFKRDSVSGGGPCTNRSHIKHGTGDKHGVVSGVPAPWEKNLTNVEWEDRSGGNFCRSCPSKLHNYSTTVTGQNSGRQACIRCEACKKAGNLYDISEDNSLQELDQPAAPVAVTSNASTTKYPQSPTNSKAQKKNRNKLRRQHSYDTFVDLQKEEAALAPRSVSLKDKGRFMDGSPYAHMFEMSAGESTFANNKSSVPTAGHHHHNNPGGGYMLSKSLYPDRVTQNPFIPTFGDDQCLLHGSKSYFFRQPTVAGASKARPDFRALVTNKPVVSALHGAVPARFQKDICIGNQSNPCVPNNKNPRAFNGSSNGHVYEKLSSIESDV
(§2) NMDA receptors are ion channels that are highly permeable to Ca^2+ ions, rendering it possible to monitor NMDA receptor function using cell-based calcium flux assay. In this assay, co-agonists glutamate and glycine are added to cells heterologously expressing human GluN1/GluN2B NMDA receptors to initiate cellular Ca^2+ influx. The time course of the changes in intracellular calcium is measured using a fluorescent dye and a FLIPR (Fluorometric Imaging Plate Reader) device.
(§3) Twenty four hours before measurements, the expression of the NMDA receptors in the stable cell line is induced with Tet-On inducible system in the presence of a non-selective NMDA receptor blocker. On the day of the experiment, cell culture media is carefully washed and the cells are loaded with Calcium 5 Dye Kit (Molecular Devices) in dye loading buffer containing 137 mM NaCl, 4 mM KCl, 2 mM CaCl2), 0.5 mM MgCl2(standard assay) or 1.5 mM MgCl2 (HTS assay), 10 mM HEPES and 5 mM D-glucose; pH 7.4. After 1 h incubation at the room temperature, the dye is washed away with the assay buffer (137 mM NaCl (standard assay) or 150 mM (HTS assay), 4 mM KCl (standard assay) or 3 mM (HTS assay), 2 mM CaCl2), 0.01 mM EDTA, 10 mM HEPES and 5 mM D-glucose; pH 7.4) In the FLIPR TETRA reader, various concentrations of the test compounds are added to the cells for 5 min while fluorescence is monitored to detect potential agonist activity. Next, co-agonists, glutamate and glycine are added for another 5 minutes. The concentration of glutamate corresponding to ˜EC40 (standard assay) or EC40 (HTS assay) is used to maximize the assay's signal window and ability to detect NMDA receptor antagonists and negative allosteric modulators. A saturating concentration (10 μM) of glycine is also present in the assay. A non-selective NMDA receptor antagonist, (+)MK-801 is used as a positive control for antagonist activity. The fluorescent signal in the presence of test compounds is quantified and normalized to the signal defined by the appropriate control wells.
Background: Calcium assays in cells follow changes in intracellular calcium, usually with a dye or a luminescent sensor.

The nature of series [2]: Liver microsomal stability (extraction ratio). It counts as in vitro ADME. To be noted: test compound 1 μM; 0.5 mg/mL liver microsomes; species not stated in Table 4 (method: mouse, rat, and human). Here is the method:
Protocol for Liver Microsomal Stability (Extraction Ratio)
Liver Microsomal Stability. Microsomal stability studies (Chrovian et al, “H-Pyrrolo[3,2-b]pyridine GluN2B-Selective Negative Allosteric Modulators”. ACS Med Chem Lett. 2019 Jan. 10; 10(3):261-266) were conducted on a Biomek@ FX Robotic Liquid Handling Workstation (Beckman Coulter, Brea, Calif.), which consists of a 96-channel pipette head, a 12-position workstation deck, and a plate incubator. Test compounds (1 μM) were spiked in a reaction mix consisting of 100 mM potassium phosphate buffer (pH 7.4), 3 mM MgCl2, and 0.5 mg/mL liver microsomes from mouse, rat, and human (BD Gentest). The reaction was brought to 37° C. and initiated by adding NADPH to a final concentration of 1 mM. After mixing on the plate deck, […] aliquots were excised from the reaction plate at 0, 5, 10, 20, 40, and 60 min and quenched with four volumes of acetonitrile spiked with […] of the internal standard phenytoin. Quenched plates were centrifuged at 5700 rpm for 10 min at 4° C., and supernatant was diluted 1:3 in water before LC/MS/MS analysis. The compound half-lives were derived from plots of the ln of percent remaining compound over time to determine the intrinsic clearance. The predicted hepatic clearance was derived from the intrinsic clearance value using equations from the well-stirred model (Current Drug Metabolism, 2008, 9, 940-951), where no correction was made plasma protein binding and the blood to plasma concentration ratio was assumed to be one. The extraction ratio (ER) was calculated by dividing the predicted hepatic clearance by species blood flow (Q), where Q is 90, 55, and 21.7 mL/min/kg for mouse, rat and human, respectively
A general note: Liver microsomes are vesicles of endoplasmic reticulum, rich in cytochrome P450 enzymes.

Series [3] deals with human GluN1/GluN2B NMDA receptors (Homo sapiens (Human), UniProt Q13224). In words: Cell-based calcium flux (FLIPR) assay on cloned human NR1/NR2B ion channels expressed in mammalian cells. To be noted: standard assay, glutamate ~EC40, 10 μM glycine. Here is the method: as §1, §2, §3
Chain of human GluN1/GluN2B NMDA receptors (Homo sapiens (Human), UniProt Q13224) (Q13224 27-1484, other chains not shown): as above

As usually defined, the IC50 is the concentration that inhibits the measured activity by half. On to `CN(C)C(=O)Cn1ncc2ncc(-c3ccc(F)c(C(F)F)c3)nc21` [Example 10, 2-[6-[3-(Difluoromethyl)-4-fluoro-phenyl]pyrazolo[3,4-b]pyrazin-1-yl]-N,N-dimethyl-acetamide], for which the IC50 in series [1] amounted to 42 nM. Further, in series [2], the “Extraction Ratio @ 1 μM” value came to 0.41.
In the same order, the values of `CN(C)C(=O)Cn1ncc2ncc(-c3ccc(Cl)c(C(F)F)c3)nc21` [Example 12, 2-[6-[4-Chloro-3-(difluoromethyl)phenyl]pyrazolo[3,4-b]pyrazin-1-yl]-N,N-dimethyl-acetamide] are 36 nM and 0.54.
In the same order, the values of `O=C(Cn1ncc2ncc(-c3ccc(F)c(C(F)F)c3)nc21)N1CCC1` [Example 24, 1-(Azetidin-1-yl)-2-[6-[3-(difluoromethyl)-4-fluoro-phenyl]pyrazolo[3,4-b]pyrazin-1-yl]ethanone] are 37 nM and below 0.298.
Take `O=C(Cn1ncc2ncc(-c3ccc(F)c(OC(F)F)c3)nc21)N1CCC1` [Example 28, 1-(Azetidin-1-yl)-2-[6-[3-(difluoromethoxy)-4-fluoro-phenyl]pyrazolo[3,4-b]pyrazin-1-yl]ethanone]: the IC50 in series [3] was found to be 59 nM. Also, the “Extraction Ratio @ 1 μM” value in series [2] came out at 0.45.
Consider `O=C(Cn1ncc2ncc(-c3ccc(F)c(C(F)F)c3)nc21)N1CC(F)C1` [Example 32, 2-[6-[3-(Difluoromethyl)-4-fluoro-phenyl]pyrazolo[3,4-b]pyrazin-1-yl]-1-(3-fluoroazetidin-1-yl)ethanone], for which, in series [1], the IC50 was determined as 37 nM. The “Extraction Ratio @ 1 μM” value in series [2] is listed as below 0.298.
Turning to `O=C(Cn1ncc2ncc(-c3ccc(F)c(OC(F)F)c3)nc21)N1CC(F)C1` [Example 37, 2-[6-[3-(Difluoromethoxy)-4-fluoro-phenyl]pyrazolo[3,4-b]pyrazin-1-yl]-1-(3-fluoroazetidin-1-yl)ethanone], the IC50 in series [3] is 92 nM. The “Extraction Ratio @ 1 μM” value in series [2] was found to be 0.46.
